In US20110086063A1, “VACCINES FOR PREVENTION AND TREATMENT OF ADDICTION” (priority 2008, published 2011):
Like-named read-outs stand apart in the source and are kept apart here.

Experiments:
[1] = Stability of cocaine hapten
[2] = molecular target: T1, dopamine transporters (DAT) (Macaca mulatta, UniProt Q7JHP9); details: rhesus monkeys, cited from earlier work
T1 construct: In rhesus monkeys, doses of 0.1 and 1.0 mg/kg cocaine occupy 53% and 87% of the DAT; host or cells: rhesus monkey brain, in vivo
T1 sequence (Q7JHP9 1-620): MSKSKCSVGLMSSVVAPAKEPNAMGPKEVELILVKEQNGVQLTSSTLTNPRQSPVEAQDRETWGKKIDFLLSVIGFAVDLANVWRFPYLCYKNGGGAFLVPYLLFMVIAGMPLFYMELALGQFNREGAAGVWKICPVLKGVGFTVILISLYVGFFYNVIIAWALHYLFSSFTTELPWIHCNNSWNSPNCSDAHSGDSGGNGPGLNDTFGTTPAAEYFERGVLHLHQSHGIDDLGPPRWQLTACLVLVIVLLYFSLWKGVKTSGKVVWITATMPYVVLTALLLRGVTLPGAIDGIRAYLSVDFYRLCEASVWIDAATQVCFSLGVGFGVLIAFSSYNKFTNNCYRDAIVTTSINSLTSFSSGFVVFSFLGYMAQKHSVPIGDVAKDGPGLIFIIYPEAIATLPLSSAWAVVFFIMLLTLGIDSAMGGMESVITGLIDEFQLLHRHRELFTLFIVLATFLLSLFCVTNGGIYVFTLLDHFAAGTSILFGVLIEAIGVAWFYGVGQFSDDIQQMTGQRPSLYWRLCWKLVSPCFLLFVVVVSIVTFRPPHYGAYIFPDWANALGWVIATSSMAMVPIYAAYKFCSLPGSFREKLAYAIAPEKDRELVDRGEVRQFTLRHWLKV

female rhesus monkeys = assay: Cocaine and candy self-administration choice in female rhesus monkeys; format: in vivo; details: representative female monkey; either dose of cocaine available (FIG. 5)
Text: FIG. 5 is a bar graph depicting cocaine and candy self-administration in female rhesus monkeys. The data is presented as a function of cocaine dose available.
A non-human primate model of intravenous cocaine self-administration will be used to determine if vaccination with Ad-cocaine decreases drug taking, which will likely provide the best predictor of clinical efficacy. To control for nonselective effects, monkeys will be trained to self-administer cocaine and candy, using a choice procedure. If the vaccine is effective at blocking the effects of cocaine, monkeys should decrease the number of cocaine choices self-administered and correspondingly increase the number of candy choices. A non-specific effect would be evidenced by a decrease in both cocaine and candy choices. After all monkeys have been trained to enter the primate chair and respond on the levers for candy, they will have vascular access port surgery (VAP). For self-administration sessions, monkeys will be placed into custom-built primate chairs, moved to the workstation, and connected to the infusion apparatus. Sessions will be conducted five days per week. Monkeys will initially be trained to self-administer 0.1 mg/kg cocaine per infusion. Once responding is stable, the cocaine dose available will be 0.05 mg/kg/infusion. […]

[3] = molecular target: T2, dopamine transporters (DAT) (Homo sapiens, UniProt Q01959); details: human cocaine abusers; cited from earlier work
T2 construct: In human cocaine abusers, at least 47% of the DAT needs to be occupied; host or cells: human brain, in vivo
T2 sequence (Q01959 whole entry): as the sequence (Q7JHP9 1-620) above, with M24V, V137I, S194P, G198S, N200D, G201S, P202S counted along it

Compound | stability relative to GNC [1] | occupancy of the DAT ([2]; 0.1 mg/kg cocaine) | occupancy of the DAT ([2]; 1.0 mg/kg cocaine) | choice between i.v. cocaine and candy (female rhesus monkeys) | DAT occupancy needed to perceive the subjective effects of cocaine [3]
CN1C2CCC1[C@@H](C(=O)NCCCCCC(=O)O)[C@@H](OC(=O)c1ccccc1)C2 (some centres unmarked) [GNE] | more stable than GNC | – | – | – | –
COC(=O)[C@@H]1C2CCC(C[C@@H]1OC(=O)c1ccccc1)N2C (some centres unmarked) [cocaine] | – | 53% | 87% | exclusively chose cocaine over candy | at least 47%
